Measured values published in US20220386602A1, “METHODS OF USING A COMPOSITION COMPRISING AN ANIONIC PESTICIDE AND A BUFFER” (BASF CORPORATION, priority 2019, published 2022).
Read-outs that look alike come from different tables or passages of the source.

Tested on: dicamba sensitive soybean plants
Conditions: dicamba 2240 g ae/ha, AMS 917 g/ha and K2CO3 buffer 4000 g/ha where named, 0.25% v/v non-ionic surfactant (Preference), 8 glass petri plates
Text: The method of a bioassay humidome study utilizes a treated substrate (e.g. glass, soil, potting mix or plants) placed in a plastic tray covered with a clear plastic humidome (overall size 25 cm wide×50 cm long×20 cm tall; source: Hummert) along with 2 dicamba sensitive soybean plants (1-2 true leaves). Individual humidomes representing different study treatments and replicates are placed in a greenhouse environment (with a typical diurnal temperature range of 25 to 40 C and 75 to 98 % RH).
After 18 to 24 hours, the sensitive soybean plants are removed from the humidomes and placed on a greenhouse bench for observation and visual response or injury assessment over a 2-3 weeks period. The level of injury to soybean plants is an indirect measurement of amount of dicamba exposure from treated substrate.

| SMILES | % bioassay soybean response [%] | % bioassay soybean response (listed as dicamba-BAPMA) |
| --- | --- | --- |
| CNC.COc1c(Cl)ccc(Cl)c1C(=O)O [Dicamba-DMA, dicamba dimethylamine] | 45 |  |
| CN(CCCN)CCCN.COc1c(Cl)ccc(Cl)c1C(=O)O [Dicamba-BAPMA, dicamba N,N-bis(3-aminopropyl)methylamine salt] | 9 | lower soybean response than dicamba-DGA or dicamba-DMA |
